Patent US20020151481A1, “MMP-2 propeptide for use as antiangiogenic or antitumor agent” (priority 2000, published 2002)

Assay: Viability of cultured chondrosarcoma cells (crystal violet nuclear staining, OD590)
Assay type: cell-based
Details: human, human chondrosarcoma cell line; crystal violet OD590 (FIG. 5); concentration not given; read-out: decrease in viable cell number
Experimental: Animal Cell Experiments. The effects of the MMP-2 propeptide on viability and metabolism of cultured animal cells was observed. A human chondrosarcoma cell line was cultured in both the presence and absence of 50 μg/ml recombinant MMP-2 propeptide (serum-free). Cultures were observed over a 48 hours period. Cell viability was monitored via crystal violet nuclear staining and absorption spectroscopy (OD590). Absorbance is proportional to cell number (Gillies, 1986, Anal. Biochem. 159:109-113). […] That MMP-2 had no effect on the cultured cancer cell line was not unexpected since the effects of angiogenesis inhibitors (such as angiostatin and endostatin) are believed to be restricted to […] endothelial cells.

**Q.** Which cytotoxicity at 48 h does the source give for `COc1cc2c(cc1O)CCN[C@]21CS[C@@H]2c3c(OC(C)=O)c(C)c4c(c3[C@H](COC1=O)N1[C@@H]2[C@H]2c3c(cc(C)c(OC)c3O)C[C@@H]([C@@H]1O)N2C)OCO4` [ET-743] here?
**A.** 50%
